Source: paper PMC10544575, “Inhibitory mechanism of vortioxetine on CYP450 enzymes in human and rat liver microsomes” (Frontiers in Pharmacology, 2023)
Read-outs that look alike come from different tables or passages of the source.

How the values were obtained:
Type in all cases: in vitro ADME
CYP2C9 = CYP2C9 (Homo sapiens, UniProt P11712); assay: IC50-shift experiment, CYP2C9 in HLMs; set-up: 0.20 mg/mL HLMs or 0.20 mg/mL RLMs; from tissue; host or cells: human liver microsomes; conditions: for IC50: losartan 8 μM
Chain of CYP2C9 (P11712 whole entry): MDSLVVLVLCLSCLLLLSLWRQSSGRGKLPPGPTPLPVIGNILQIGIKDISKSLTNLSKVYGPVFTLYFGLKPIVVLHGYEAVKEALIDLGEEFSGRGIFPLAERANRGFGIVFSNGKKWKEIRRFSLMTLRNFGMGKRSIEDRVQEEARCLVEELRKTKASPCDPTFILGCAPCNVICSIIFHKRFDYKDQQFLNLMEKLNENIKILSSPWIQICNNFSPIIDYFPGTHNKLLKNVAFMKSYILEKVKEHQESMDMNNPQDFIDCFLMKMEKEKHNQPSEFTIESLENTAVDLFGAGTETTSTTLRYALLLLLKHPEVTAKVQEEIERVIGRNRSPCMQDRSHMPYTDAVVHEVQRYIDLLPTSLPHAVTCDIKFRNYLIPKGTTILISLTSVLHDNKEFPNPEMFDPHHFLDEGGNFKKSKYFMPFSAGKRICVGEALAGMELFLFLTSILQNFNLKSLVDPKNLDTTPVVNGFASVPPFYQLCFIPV
Procedure: (§1) The components of the incubation system were as follows: 0.20 mg/mL HLMs or 0.20 mg/mL RLMs, 0.1 M Tris-HCl, vortioxetine, and the probe substrates of each enzyme. In the study of Km’s (Michaelis–Menten constant) experiment, midazolam (1, 2, 5, 10, 20, 50 and 100 μM in HLMs and RLMs) corresponded to CYP3A4/3A; bupropion (10, 20, 50, 100, 200, 500, 1,000 and 2000 μM in HLMs; 1, 2, 5, 10, 20, 50, 100 and 200 μM in RLMs) corresponded to CYP2B6/2B; amodiaquine (5, 10, 20, 50, 100 and 200 μM in HLMs; 10, 20, 50, 100, 200, 500 μM in RLMs) corresponded to CYP2C8/CYP2C-1; losartan (1, 2, 5, 10, 20, 50, 100, 200 μM in HLMs; 10, 20, 50, 100, 200, 500 and 1,000 μM in RLMs) corresponded to CYP2C9/CYP2C-2; mephenytoin (20, 50, 100, 200, 500 and 1,000 μM in HLMs; 5, 10, 20, 50, 100, 200, 500 and 1,000 μM in RLMs) corresponded to CYP2C19/CYP2C-3; and dextromethorphan (1, 2, 5, 10, 20, 50 and 100 μM in HLMs and RLMs) corresponded to CYP2D6/CYP2D. After 5.0 min of preincubation in the shaking water bath, the reaction was started with the addition of 1.0 mM NADPH. The incubated temperature at 37°C for 30 min. After the incubation, the enzyme reaction was stopped by cooling at −80°C, and 200 μL of acetonitrile and 20 μL of internal standard diazepam (200 ng/mL) were added for protein precipitation. […]
(§2) IC50-shift was used to investigate whether the drug produced time-dependent inhibition (TDI) of the enzyme. […] During the experiment, the individual substrates midazolam (4 μM), bupropion (40 μM), amodiaquine (3 μM), losartan (8 μM), mephenytoin (90 μM), and dextromethorphan (10 μM) were determined with vortioxetine IC50-shift in HLMs. […]
(§3) All experiments results were detected by UPLC-MS/MS, which equipped with a Waters Acquity UPLC system (Milford, MA, United States) and a Waters Xevo TQ-S triple quadrupole tandem mass spectrometer with an electrospray ionization source (Milford, MA, United States). […]
(§4) IC50 values and enzyme kinetic parameters were calculated by Graphpad Prism 6.0 (GraphPad software Inc., CA, United States). […] Data for each experiment were expressed as mean ± SD (n = 3).

CYP2C-2 = assay: IC50 of vortioxetine on CYP2C-2 (losartan) in RLMs; conditions: rat, rat liver microsomes, probe losartan
Procedure: as §1, with “CYP2D6/CYP2D.” for “CYP2D6/CYP2D. After 5.0 min of preincubation in the shaking water bath, the reaction was started with the addition of 1.0 mM NADPH. The incubated temperature at 37°C for 30 min. After the incubation, the enzyme reaction was stopped by cooling at −80°C, and 200 μL of acetonitrile and 20 μL of internal standard diazepam (200 ng/mL) were added for protein precipitation.”
as §3, §4

CYP2C-3 = assay: IC50-shift experiment, CYP2C-3 in RLMs; conditions: rat, rat liver microsomes, probe mephenytoin; for IC50 at 30 min: mephenytoin 400 μM
Procedure: as §1, §2, §3, §4

CYP2D = assay: IC50 of vortioxetine on CYP2D (dextromethorphan) in RLMs; conditions: rat, rat liver microsomes, probe dextromethorphan
Procedure: as §1, with “CYP2D6/CYP2D.” for “CYP2D6/CYP2D. After 5.0 min of preincubation in the shaking water bath, the reaction was started with the addition of 1.0 mM NADPH. The incubated temperature at 37°C for 30 min. After the incubation, the enzyme reaction was stopped by cooling at −80°C, and 200 μL of acetonitrile and 20 μL of internal standard diazepam (200 ng/mL) were added for protein precipitation.”
as §3, §4

[1] = 30 min preincubation with 1.0 mM NADPH
[2] = 30 min preincubation without NADPH
[3] = inhibitory effect (strength judged by IC50), RLMs

Work on `Cc1ccc(Sc2ccccc2N2CCNCC2)c(C)c1` [vortioxetine] yielded an IC50 (CYP2C9; [1]) of 16.7 µM, an IC50 (CYP2C9; [2]) of 18.6 µM and an IC50 shift at 30 min (CYP2C9; human, human liver microsomes, probe losartan (8 μM), ratio IC50 (−) NADPH to IC50 (+) NADPH, read-out: IC50 fold shift) of 1.11. The IC50 at 30 min (CYP2C-2; RLMs 0.20 mg/mL, losartan at Km, 37°C, 30 min, read-out: IC50) was 0.37 µM, the IC50 at 30 min (CYP2C-2; [3]) was under 1 µM and the IC50 at 30 min (CYP2C-3; [1]) was 5.21 µM. The IC50 at 30 min (CYP2C-3; [2]) was 24.6 µM, the IC50 shift at 30 min (CYP2C-3; ratio IC50 (−) NADPH to IC50 (+) NADPH, read-out: IC50 fold shift) was 4.72 and the IC50 at 30 min (CYP2D; RLMs 0.20 mg/mL, dextromethorphan at Km, 37°C, 30 min, read-out: IC50) was 15.7 µM. The IC50 at 30 min (CYP2D; [3]) was over 10 µM.
